pEC50, pIC50: −log10 of the molar value.
Experiments:
Format in all cases: cell-based
HOS = experiment: Cell panel nuclear dye assay; conditions: Homo sapiens, 120 h, Osteosarcoma, 5-day incubation
Description: (§1) Cells were grown in RPMI1640, 10% FBS, 2 mM L-alanyl-L-glutamine, 1 mM Na pyruvate, or a special medium. Cells were seeded into 384-well plates and incubated in a humidified atmosphere of 5% CO2 at 37° C. Compound was added the day following cell seeding. At the same time, a time zero untreated cell plate was generated. After a 5-day incubation period, cells were fixed and stained to allow fluorescence imaging of nuclei.
(§2) Compounds were serially diluted in 2-fold steps from the highest test concentration specified, and assayed over 10 concentrations with a maximum assay concentration of 0.1% DMSO. Automated fluorescence microscopy was carried out using a Molecular Devices ImageXpress Micro XL high-content imager, and images were collected with a 4× objective. 16-bit TIFF images were acquired and analyzed with MetaXpress 5.1.0.41 software.
(§3) Cell proliferation was measured by the fluorescence intensity of an incorporated nuclear dye. The output is referred to as the relative cell count, where the measured nuclear intensity is transformed to percent of control (POC) using the following formula: […]
(§4) Cell count IC50 is the test compound concentration at 50% of maximal possible response. EC50 is the test compound concentration at the curve inflection point or half the effective response (parameter C of the fitted curve solution). GI50 is the concentration needed to reduce the observed growth by half (midway between the curve maximum and the time zero value). Activity area is an estimate of the integrated area above the curve. Activity area values range from 0-10, where a value of zero indicates no inhibition of proliferation at all concentrations, and a value of 10 indicates complete inhibition of proliferation at all concentrations. In rare instances, values <0 or >10 may be observed. In these instances, values <0 should be considered as equivalent to 0, whereas values >10 should be considered equivalent to 10.

SW1088 = experiment: Cell panel nuclear dye assay; conditions: Homo sapiens, 120 h, Glioma (astrocytoma), 5-day incubation
Description: as §1, §2, §3, §4

SW1783 = experiment: Cell panel nuclear dye assay; conditions: Homo sapiens, 120 h, Glioma (astrocytoma), 5-day incubation
Description: as §1, §2, §3, §4

A172 = experiment: Cell panel nuclear dye assay; conditions: Homo sapiens, A 172, 120 h, Glioma (glioblastoma), 5-day incubation
Description: as §1, §2, §3, §4

CCF-STTG1 = experiment: Cell panel nuclear dye assay; conditions: Homo sapiens, 120 h, Glioma (astrocytoma), 5-day incubation
Description: as §1, §2, §3, §4

NCI-H441 = experiment: Cell panel nuclear dye assay; conditions: Homo sapiens, 120 h, Lung (NSCLC), 5-day incubation
Description: as §1, §2, §3, §4

Hs 294T = experiment: Cell panel nuclear dye assay; conditions: Homo sapiens, 120 h, Melanoma, 5-day incubation
Description: as §1, §2, §3, §4

NCI-H747 = experiment: Cell panel nuclear dye assay; conditions: Homo sapiens, 120 h, Colon (cecum), 5-day incubation
Description: as §1, §2, §3, §4

MeWo = experiment: Cell panel nuclear dye assay; conditions: Homo sapiens, 120 h, Melanoma, 5-day incubation
Description: as §1, §2, §3, §4

BC-1 = experiment: Cell panel nuclear dye assay; conditions: Homo sapiens, BC1, 120 h, Lymphoma (B-cell), 5-day incubation
Description: as §1, §2, §3, §4

NCI-H446 = experiment: Cell panel nuclear dye assay; conditions: Homo sapiens, 120 h, Lung (SCLC), 5-day incubation
Description: as §1, §2, §3, §4

SCC-9 = experiment: Cell panel nuclear dye assay; conditions: Homo sapiens, 120 h, Head & neck (squamous cell carcinoma, tongue), 5-day incubation
Description: as §1, §2, §3, §4

M059J = experiment: Cell panel nuclear dye assay; conditions: Homo sapiens, 120 h, Glioma (glioblastoma), 5-day incubation
Description: as §1, §2, §3, §4

SCC-4 = experiment: Cell panel nuclear dye assay; conditions: Homo sapiens, 120 h, Head & neck (squamous cell carcinoma, tongue), 5-day incubation
Description: as §1, §2, §3, §4

SK-LMS-1 = experiment: Cell panel nuclear dye assay; conditions: Homo sapiens, 120 h, Sarcoma (leiomyosarcoma), 5-day incubation
Description: as §1, §2, §3, §4

SaOS2 = experiment: Cell panel nuclear dye assay; conditions: Homo sapiens, SAOS-2, 120 h, Osteosarcoma, 5-day incubation
Description: as §1, §2, §3, §4

[1] = system: 885 barcoded cancer cell lines; experiment: PRISM multiplexed cell-viability assay (Example 45); conditions: 5-day treatment; for Log 2 fold change in abundance of the cells: 66.7 μM
From the text: The multiplexed cell-viability platform, PRISM (profiling relative inhibition simultaneously in mixtures), enabled multiplexed screening of Compound I-1 across 900 barcoded cell lines representing more than 45 lineages. Details of the assay technique are described in Yu, C., et al. “High-throughput identification of genotype-specific cancer vulnerabilities in mixtures of barcoded tumor cell lines,” Nat. Biotechnol. 2016, Vol. 34, p. 419-423; and Corsello, S. M., et al. “Discovering the anti-cancer potential of non-oncology drugs by systematic viability profiling,” Nat. Cancer, 2020, Vol. 1, p. 235-248; each of which are hereby incorporated by reference in their entirety.
Briefly, unique oligonucleotide barcodes are stably transduced into individual cancer cell lines. Following barcode transduction, individual cell lines are pooled together in groups of 20-25 based on growth rate similarity, then thawed into 384-well assay-ready plates, and treated with test compound. After 5 days of incubation, isolated mRNA is used to quantify transcribed barcode abundance of each individual cancer cell line to calculate relative viability (Log 2 fold change, “LFC”).
Compound I-1 was screened in the PRISM assay at 8-point dose (3-fold dilution) with a 5-day treatment with 885 cancer cell lines passing QC. Two PRISM cell line collections were used in the assay: PR500 (including only adherent cell lines) and PR300+(including adherent and suspension cell lines). Benchmark compounds (included in the validation compounds) were also tested at doses to ensure high data quality. All compounds were run in triplicate, and each plate contained positive (Bortezomib, 20 μM) and negative (DMSO) controls.

[2] = system: LN229 gliobastoma cells MGMT−/MMR−; experiment: Anti-cancer assay, isogenic LN229 cells, nuclei count (Examples 43, 46); conditions: Homo sapiens, LN-229; MGMT negative/MMR negative; Example 46, maximum concentration 200 μM; read-out: IC50 for causing the death of LN229 cells

## NC(=O)c1ncn2c(=O)n(CCOC(F)(F)F)nnc12 [Compound I-1, 4-Oxo-3-(2-(trifluoromethoxy)ethyl)-3,4-dihydroimidazo[5,1-d][1,2,3,5]tetrazine-8-carboxamide]
HOS
  pEC50: 4.15 to 4.52
  pIC50: 4.15 to 4.52
SW1088
  pEC50: 3.82 to 4.15
  pIC50: 3.82 to 4.15
SW1783
  pEC50: 3.82 to 4.15
  pIC50: 3.82 to 4.15
A172
  pEC50: 4.15 to 4.52
  pIC50: 3.82 to 4.15
CCF-STTG1
  pEC50: ≥ 4.52
  pIC50: 4.15 to 4.52
NCI-H441
  pEC50: < 3.82
  pIC50: < 3.82
Hs 294T
  pEC50: ≥ 4.52
  pIC50: ≥ 4.52
NCI-H747
  pEC50: < 3.82
  pIC50: < 3.82
MeWo
  pEC50: < 3.82
  pIC50: < 3.82
BC-1
  pEC50: ≥ 4.52
  pIC50: ≥ 4.52
NCI-H446
  pEC50: 4.15 to 4.52
  pIC50: 4.15 to 4.52
SCC-9
  pEC50: 3.82 to 4.15
  pIC50: 3.82 to 4.15
M059J
  pEC50: 4.15 to 4.52
  pIC50: 4.15 to 4.52
SCC-4
  pEC50: ≥ 4.52
  pIC50: < 3.82
SK-LMS-1
  pEC50: 4.15 to 4.52
  pIC50: 4.15 to 4.52
SaOS2
  pEC50: ≥ 4.52
  pIC50: ≥ 4.52
[1]; cell lines of Table 8
  Log 2 fold change in abundance of the cells: −3.5 to −2.0
[1]; cell lines of Table 9
  Log 2 fold change in abundance of the cells: −2.0 to −1.0
[1]; cell lines of Table 10
  Log 2 fold change in abundance of the cells: −1.0 to −0.5
[1]; cell lines of Table 11
  Log 2 fold change in abundance of the cells: −0.5 to −0.001
[1]; cell lines of Table 12
  anti-cancer effect: did not appear to provide an anti-cancer effect
[2]
  pIC50: > 4.70

— patent US20250066371A1, “FLUOROALKOXYALKYLENE-DIHYDROIMIDAZO[5,1-D]TETRAZINONE COMPOUNDS AND RELATED COMPOUNDS AND THEIR USE IN TREATING MEDICAL CONDITIONS” (priority 2023, published 2025)
